One data set relates to subcutaneous solid tumor. Description: Inhibition of tumor growth in subcutaneous solid tumor mouse models. To be noted: no laser; tail vein, DOX 2 mg/kg, PCN-224 12 mg/kg, DOX@PCN-224 and DOX@Gal-PCN-224 14 mg/kg; last day (day 21) versus saline. The format is in vivo, BALB/c nude mice. The protocol:
To construct subcutaneous solid tumor mouse models, male BALB/c nude mice with the average weight of 14-17 g at the age of 4 weeks were inoculated with 0.1 ml of 6×10^6 cells/ml PBS at the right gluteus. After four weeks, when the tumor size exceeded 200 mm^3 (volume=0.52×tumor length×tumor width^2), the mice were divided into 2 groups with 5 mice in each group. The DOX@PCN-224-RhB (0.1 mL 0.4 mg/mL) and DOX@Gal-PCN-224-RhB (0.1 mL 0.4 mg/ml) were injected into the tail vein respectively. The fluorescence signal of RhB was detected by a small animal imager (Bruker In Vivo Xtreme II) at set time points (3, 6, 12, 24, 48 hours). Then the mice were sacrificed, the heart, liver, spleen, lung and kidney were isolated, and the RhB fluorescence signal of each organ was detected.
When the subcutaneous tumor size of the mice exceeded 50 mm^3, the mice were randomly divided into 9 groups with 5 mice in each group: (1) saline, (2) free DOX saline (2 mg/kg), (3) free DOX+660 nm laser (2 mg/kg), (4) PCN-224 (12 mg/kg), (5) PCN-224+660 nm laser (12 mg/kg), (6) DOX@PCN-224 (14 mg/kg), (7) DOX@PCN-224+660 nm laser (14 mg/kg), (8) DOX@Gal-PCN-224 (14 mg/kg), and (9) DOX@Gal-PCN-224+660 nm laser (14 mg/kg). […] At the specified time points (days 3, 6, 9, 12, 15, 18, and 21), the tumor volume and mouse body weight of the experimental groups were measured. […]

Data set [1] deals with Huh7 cells. Description: MTT in vitro therapeutic effect. The conditions noted are these: 10 μg/mL DOX, 60 μg/mL PCN-224, 70 μg/mL DOX@PCN-224 or DOX@Gal-PCN-224. It counts as cell-based, human. The protocol: (§1) The in vitro therapeutic effect of the inorganic nanomaterial DOX@Gal-PCN-224 was detected by the live and death staining method and the corresponding MTT experiment.
(§2) Human hepatoma cells Huh7 were inoculated in a laser confocal culture dish (35 mm) at the density of 8×10^4 per well. After culturing for 24 hours, the cells were incubated with a medium containing 10 μg/mL DOX, 60 μg/mL PCN-224, 70 μg/mL DOX@PCN-224 (with the drug loading ratio of 14.2, and the DOX content of about 10 μg/mL) or 70 μg/mL DOX@Gal-PCN-224 (with the drug loading ratio of 14.2, and the DOX content of about 10 μg/mL) respectively for 24 hours. Then the light group was irradiated with a 660 nm light source for 10 min. After incubating for 24 hours, Calcein-AM/PI live and dead co-staining was performed. Finally, the cells were observed under the confocal laser. After the same treatment, the therapeutic effect of each group was further quantified by the MTT experiment.

Data set [2] concerns Huh7 cells. Description: Calcein-AM/PI live and dead staining, in vitro therapeutic effect. It counts as cell-based, human. The conditions noted are these: 10 μg/mL DOX, 60 μg/mL PCN-224, 70 μg/mL DOX@PCN-224 or DOX@Gal-PCN-224. The protocol:
as §1, §2

`COc1cccc2c1C(=O)c1c(O)c3c(c(O)c1C2=O)C[C@@](O)(C(=O)CO)C[C@@H]3O[C@H]1C[C@H](N)[C@H](O)[C@H](C)O1` [DOX, doxorubicin] came in with a Tumor inhibition efficiency in the data set with subcutaneous solid tumor of 49.8%. The Cell viability in the data set with Huh7 cells [1] (Huh7, + 660 nm laser 10 min) is 79%; with Huh7 cells [1] (Huh7, no laser) it was 82%. The “live and dead staining (red fluorescence = dead cells, apoptosis)” value with Huh7 cells [2] (Huh7, 660 nm light 10 min) is “only sporadic red fluorescence”; with Huh7 cells [2] (Huh7, no light), “only sporadic red fluorescence”.

The values above are taken from patent US12128111B2, “Glyco-metal-organic frameworks-based hepatic targeted therapeutic drug and preparation method thereof” (Jiangnan University, priority 2019, dated 2024).
